GI50 and IC50 data for 23 molecules are collected here from patent publication US8648092B2, “Imidazo[1,2-a]pyridine derivatives: preparation and pharmaceutical applications” (MEI Pharma, priority 2005, dated 2014).

For orientation: GI50 means the concentration that inhibits growth by half. High values mean less potent growth inhibition, low ones more potent growth inhibition. For orientation: IC50 means the concentration that gives 50% inhibition.

Assay [1] concerns Colo205 cells. In words: Cell-based proliferation assay for determination of GI50 values (CyQUANT). The arrangement: species or system human. The settings on record: Homo sapiens. In a few lines: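 Colo205 cells in RPMI 1640 with 5% FBS, seeded 5000/well and grown 24 h at 37 °C. Exposure to compound lasted 96 h, with growth read by CyQUANT. GI50 = concentration giving 50% growth inhibition, from dose-response curves.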

Assay [2] deals with HDAC1 enzyme (recombinant GST-HDAC1) (Homo sapiens (Human), UniProt Q13547). In words: In vitro HDAC assay for determination of IC50 values (BIOMOL fluorescent-based HDAC activity assay). In kind it is biochemical. The settings on record: Flur de lys substrate, 2 h room temperature, read-out: IC50 (HDAC 1). The method in brief:
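Recombinant human GST-HDAC1, baculovirus-expressed in SF9 cells and glutathione-purified, tested with a fluorogenic deacetylase substrate; Fluor de Lys developer added for 10 min. Fluorescence at 360 nm excitation/460 nm emission; IC50 fitted from a concentration series.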

Each structure is given as a SMILES string.

Sequence of HDAC1 enzyme (recombinant GST-HDAC1) (Q13547 whole entry): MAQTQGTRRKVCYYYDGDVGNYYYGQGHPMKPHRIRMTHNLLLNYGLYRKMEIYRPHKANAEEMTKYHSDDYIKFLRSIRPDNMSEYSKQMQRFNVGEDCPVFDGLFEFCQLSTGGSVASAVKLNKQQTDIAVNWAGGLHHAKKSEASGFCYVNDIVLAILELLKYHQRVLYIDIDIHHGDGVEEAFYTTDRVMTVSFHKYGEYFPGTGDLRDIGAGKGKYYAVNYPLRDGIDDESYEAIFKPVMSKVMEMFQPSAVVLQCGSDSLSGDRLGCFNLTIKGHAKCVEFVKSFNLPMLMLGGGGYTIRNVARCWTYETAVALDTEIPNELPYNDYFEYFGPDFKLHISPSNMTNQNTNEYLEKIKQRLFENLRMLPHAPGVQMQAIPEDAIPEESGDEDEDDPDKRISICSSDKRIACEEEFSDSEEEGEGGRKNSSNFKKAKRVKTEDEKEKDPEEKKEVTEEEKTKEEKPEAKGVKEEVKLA

`CCCCc1nc2cc(/C=C/C(=O)NO)ccn2c1CNC(C)(C)C` [Compound 73, 3-[2-Butyl-3-(tert-butylamino-methyl)-imidazo[1,2-a]pyridin-7-yl]-N-hydroxy-acrylamide]: growth in assay [1] (COLO 205, 96 h, 96 h treatment) was halved (GI50) at 140 nM. Further, the IC50 in assay [2] amounted to 20 nM.
`CCCCc1nc2cc(/C=C/C(=O)NO)ccn2c1CN(CCC)CCC` [Compound 74, 3-(2-Butyl-3-dipropylaminomethyl-imidazo[1,2-a]pyridin-7-yl)-N-hydroxy-acrylamide] had a GI50 in assay [1] (COLO 205, 96 h treatment) of 610 nM. Further, the IC50 in assay [2] stood at 200 nM.
`CCCCc1nc2cc(/C=C/C(=O)NO)ccn2c1CN(CC)CC` [Compound 75, 3-(2-Butyl-3-diethylaminomethyl-imidazo[1,2-a]pyridin-7-yl)-N-hydroxy-acrylamide]: in assay [1] (COLO 205, 96 h treatment), the GI50 turned out to be 680 nM. For the same molecule, the IC50 in assay [2] amounted to 180 nM.
For `CCCCc1nc2cc(/C=C/C(=O)NO)ccn2c1CN(C)CCCC` [Compound 76, 3-{2-Butyl-3-[(butyl-methyl-amino)-methyl]-imidazo[1,2-a]pyridin-7-yl}-N-hydroxy-acrylamide], in that order: 170 nM and 70 nM.
Molecule `CCCCc1nc2cc(/C=C/C(=O)NO)ccn2c1CN(CC)CCCC` [Compound 77, 3-{2-Butyl-3-[(butyl-ethyl-amino)-methyl]-imidazo[1,2-a]pyridin-7-yl}-N-hydroxy-acrylamide] had a GI50 in assay [1] (COLO 205, 96 h treatment) of 160 nM. Moreover, the IC50 in assay [2] came out at 60 nM.
`CCCCc1nc2cc(/C=C/C(=O)NO)ccn2c1CN(CCC)CCCC` [Compound 78, 3-{2-Butyl-3-[(butyl-propyl-amino)-methyl]-imidazo[1,2-a]pyridin-7-yl}-N-hydroxy-acrylamide] yielded a GI50 in assay [1] (COLO 205, 96 h treatment) of 580 nM. The IC50 in assay [2] is 90 nM.
For `CCN(CC)Cc1c(-c2ccccc2)nc2cc(C(=O)NO)ccn12` [Compound 79, 3-Diethylaminomethyl-2-phenyl-imidazo[1,2-a]pyridine-7-carboxylic acid hydroxyamide], in that order: > 100000 nM and > 10000 nM.
`CCN(CC)Cc1c(C(C)(C)C)nc2cc(/C=C/C(=O)NO)ccn12` [Compound 80, 3-(2-tert-Butyl-3-diethylaminomethyl-imidazo[1,2-a]pyridin-7-yl)-N-hydroxy-acrylamide] returned a GI50 in assay [1] (COLO 205, 96 h, 96 h treatment) of 4400 nM. Also, the IC50 in assay [2] is 1200 nM.
In turn, `CCCN(CC)Cc1c(C(C)(C)C)nc2cc(/C=C/C(=O)NO)ccn12` [Compound 82, 3-{2-tert-Butyl-3-[(ethyl-propyl-amino)-methyl]-imidazo[1,2-a]pyridin-7-yl}-N hydroxy-acrylamide] gave a GI50 in assay [1] (COLO 205, 96 h treatment) of 1800 nM. Also, the IC50 in assay [2] came to 270 nM.
Consider `CCCCc1nc2cc(/C=C/C(=O)NO)ccn2c1CN(C)C` [Compound 83, 3-(2-Butyl-3-dimethylaminomethyl-imidazo[1,2-a]pyridin-7-yl)-N-hydroxy-acrylamide], for which the GI50 in assay [1] (COLO 205, 96 h, 96 h treatment) was 230 nM. The IC50 in assay [2] amounted to 40 nM.
Consider `CCNCc1c(C(C)(C)C)nc2cc(/C=C/C(=O)NO)ccn12` [Compound 84, 3-(2-tert-Butyl-3-ethylaminomethyl-imidazo[1,2-a]pyridin-7-yl)-N-hydroxy-acrylamide], for which the GI50 in assay [1] (COLO 205, 96 h treatment) came out at 470 nM. Further, the IC50 in assay [2] was 60 nM.
In assay [1] (COLO 205, 96 h treatment), `CCCCN(CC)Cc1c(C(C)(C)C)nc2cc(/C=C/C(=O)NO)ccn12` [Compound 85, 3-{2-tert-Butyl-3-[(butyl-ethyl-amino)-methyl]-imidazo[1,2-a]pyridin-7-yl}-N-hydroxy-acrylamide] registered a GI50 of 680 nM. Further, in assay [2], the IC50 was 60 nM.
In the case of `CCN(Cc1c(C(C)(C)C)nc2cc(/C=C/C(=O)NO)ccn12)CC(C)C` [Compound 86, 3-{2-tert-Butyl-3-[(ethyl-isobutyl-amino)-methyl]-imidazo[1,2-a]pyridin-7-yl}-N-hydroxy-acrylamide], the GI50 in assay [1] (COLO 205, 96 h treatment) is 3900 nM. In addition, the 50% inhibitory concentration (IC50) in assay [2] came to 570 nM.
Take `CCCCCN(CC)Cc1c(C(C)(C)C)nc2cc(/C=C/C(=O)NO)ccn12` [Compound 87, 3-{2-tert-Butyl-3-[(ethyl-pentyl-amino)-methyl]-imidazo[1,2-a]pyridin-7-yl}-N-hydroxy-acrylamide]: it took 750 nM to inhibit growth in assay [1] (COLO 205, 96 h treatment) by half (GI50). Further, the IC50 in assay [2] is 130 nM.
Turning to `CCN(CCC(C)C)Cc1c(C(C)(C)C)nc2cc(/C=C/C(=O)NO)ccn12` [Compound 89, 3-(2-tert-Butyl-3-{[ethyl-(3-methyl-butyl)-amino]-methyl}-imidazo[1,2-a]pyridin-7-yl)-N-hydroxy-acrylamide], it took 350 nM to inhibit growth in assay [1] (COLO 205, 96 h, 96 h treatment) by half (GI50). In assay [2], the IC50 came to 60 nM.
On to `CCCCCCN(CC)Cc1c(C(C)(C)C)nc2cc(/C=C/C(=O)NO)ccn12` [Compound 90, 3-{2-tert-Butyl-3-[(ethyl-hexyl-amino)-methyl]-imidazo[1,2-a]pyridin-7-yl}-N-hydroxy-acrylamide], for which the 50% growth inhibitory concentration (GI50) in assay [1] (COLO 205, 96 h treatment) turned out to be 2000 nM. Moreover, in assay [2], the IC50 was 240 nM.
For `CCCC(C)CN(CC)Cc1c(C(C)(C)C)nc2cc(/C=C/C(=O)NO)ccn12` (stereo not shown) [Compound 91, 3-(2-tert-Butyl-3-{[ethyl-(2-methyl-pentyl)-amino]-methyl}-imidazo[1,2-a]pyridin-7-yl)-N-hydroxy-acrylamide], in that order: 2100 nM and 470 nM.
Turning to `CCN(CCC(C)(C)C)Cc1c(C(C)(C)C)nc2cc(/C=C/C(=O)NO)ccn12` [Compound 92, 3-(2-tert-Butyl-3-{[(3,3-dimethyl-butyl)-ethyl-amino]-methyl}-imidazo[1,2a]pyridin-7-yl)-N-hydroxy-acrylamide], the GI50 in assay [1] (COLO 205, 96 h, 96 h treatment) worked out at 480 nM. In assay [2], the IC50 came to 70 nM.
Consider `CCC(CC)CN(CC)Cc1c(C(C)(C)C)nc2cc(/C=C/C(=O)NO)ccn12` [Compound 93, 3-(2-tert-Butyl-3-{[ethyl-(2-ethyl-butyl)-amino]-methyl}-imidazo[1,2-a]pyridin-7-yl)-N-hydroxy-acrylamide], for which the GI50 in assay [1] (COLO 205, 96 h treatment) worked out at 970 nM. Also, the IC50 in assay [2] is 190 nM.
Turning to `CCN(CCCSC)Cc1c(C(C)(C)C)nc2cc(/C=C/C(=O)NO)ccn12` [Compound 95, 3-(2-tert-Butyl-3-{[ethyl-(3-methylsulfanyl-propyl)-amino]-methyl}-imidazo[1,2-a]pyridin-7-yl)-N-hydroxy-acrylamide], in assay [1] (COLO 205, 96 h treatment), growth was halved (GI50) at 600 nM. Besides, in assay [2], the IC50 turned out to be 90 nM.
For `CCN(Cc1c(C(C)(C)C)nc2cc(/C=C/C(=O)NO)ccn12)CC1CCOC1` (stereo not shown) [Compound 96, 3-(2-tert-Butyl-3-{[ethyl-(tetrahydro-furan-3-ylmethyl)-amino]-methyl}-imidazo[1,2-a]pyridin-7-yl)-N-hydroxy-acrylamide], in that order: 3400 nM and 370 nM.
In the case of `CCN(Cc1c(C(C)(C)C)nc2cc(/C=C/C(=O)NO)ccn12)CC1CC1` [Compound 97, 3-{2-tert-Butyl-3-[(cyclopropylmethyl-ethyl-amino)-methyl]-imidazo[1,2-a]pyridin-7-yl}-N-hydroxy-acrylamide], the GI50 in assay [1] (COLO 205, 96 h treatment) was found to be 2100 nM. In assay [2], the IC50 was found to be 330 nM.
Regarding `CCN(Cc1c(C(C)(C)C)nc2cc(/C=C/C(=O)NO)ccn12)CC1CCCCC1` [Compound 98, 3-{2-tert-Butyl-3-[(cyclohexylmethyl-ethyl-amino)-methyl]-imidazo[1,2-a]pyridin-7-yl}-N-hydroxy-acrylamide], it took 1100 nM to inhibit growth in assay [1] (COLO 205, 96 h, 96 h treatment) by half (GI50). The IC50 in assay [2] stood at 190 nM.
